Reference: patent publication US8802597B2, “Herbicidal pyrimidines” (E I du Pont de Nemours and Company, priority 2003, dated 2014)

Assays:
Assay in all cases: Test A pre/postemergence
Assay type in all cases: in vivo
[1] = system: velvetleaf (Abutilon theophrasti)
Experimental: (§1) Seeds of barnyardgrass (Echinochloa crus-galli), crabgrass (Digitaria sanguinalis), giant foxtail (Setaria faberi), morningglory (Ipomoea spp.), redroot pigweed (Amaranthus retroflexus) and velvetleaf (Abutilon theophrasti) were planted into a blend of loam soil and sand and treated preemergence with a directed soil spray using test chemicals formulated in a non-phytotoxic solvent mixture which included a surfactant. At the same time these species were also treated with postemergence applications of test chemicals formulated in the same manner.
(§2) Plants ranged in height from 2 to 10 cm and were in the 1- to 2-leaf stage for the postemergence treatment. Treated plants and untreated controls were maintained in a greenhouse for approximately ten days, after which time all treated plants were compared to untreated controls and visually evaluated for injury. Plant response ratings, summarized in Table A, are based on a 0 to 100 scale where 0 is no effect and 100 is complete control. A dash (-) response means no test results.

[2] = system: giant foxtail (Setaria faberi)
Experimental: as §1, §2

[3] = system: redroot pigweed (Amaranthus retroflexus)
Experimental: as §1, §2

[4] = system: barnyardgrass (Echinochloa crus-galli)
Experimental: as §1, §2

[5] = system: crabgrass (Digitaria sanguinalis)
Experimental: as §1, §2

[6] = system: morningglory (Ipomoea spp.)
Experimental: as §1, §2

[7] = Postemergence, 125 g ai/ha, 0 to 100 scale (0 no effect, 100 complete control)
[8] = Postemergence, 500 g ai/ha, 0 to 100 scale (0 no effect, 100 complete control)
[9] = Preemergence, 125 g ai/ha, 0 to 100 scale where 0 is no effect and 100 is complete control, approximately ten days
[10] = Preemergence, 500 g ai/ha, 0 to 100 scale where 0 is no effect and 100 is complete control, approximately ten days

Row | SMILES | Plant response rating, Velvetleaf [1, 7] | Plant response rating, Velvetleaf [1, 8] | Plant response rating, Velvetleaf [1, 9] | Plant response rating, Velvetleaf [1, 10] | Plant response rating, Foxtail, Giant [2, 7] | Plant response rating, Foxtail, Giant [2, 8] | Plant response rating, Foxtail, Giant [2, 9] | Plant response rating, Foxtail, Giant [2, 10] | Plant response rating, Pigweed [3, 7] | Plant response rating, Pigweed [3, 8] | Plant response rating, Pigweed [3, 9] | Plant response rating, Pigweed [3, 10] | Plant response rating, Barnyardgrass [4, 7] | Plant response rating, Barnyardgrass [4, 8] | Plant response rating, Barnyardgrass [4, 9] | Plant response rating, Barnyardgrass [4, 10] | Plant response rating, Crabgrass [5, 7] | Plant response rating, Crabgrass [5, 8] | Plant response rating, Crabgrass [5, 9] | Plant response rating, Crabgrass [5, 10] | also measured
1 | CS(=O)(=O)NC(=O)c1nc(C2CC2)nc(N)c1Cl [Compound 132] | 50 | 60 | 0 | 5 | 0 | 5 | 0 | 0 | 50 | 65 | 15 | 65 | 0 | 10 | 0 | 0 | 5 | 10 | 0 | 0 | Plant response rating, Morningglory [6, 7]: 45; Plant response rating, Morningglory [6, 8]: 50; Plant response rating, Morningglory [6, 9]: 0; Plant response rating, Morningglory [6, 10]: 0
2 | CCCCOCCOC(=O)c1nc(C2CC2)nc(N)c1Cl [Compound 139] | 85 | 90 | 90 | 90 | 80 | 80 | 80 | 90 | 90 | 100 | 90 | 100 | 80 | 90 | 75 | 90 | 60 | 70 | 75 | 90 | Plant response rating, Morningglory [6, 7]: 80; Plant response rating, Morningglory [6, 8]: 90; Plant response rating, Morningglory [6, 9]: 90; Plant response rating, Morningglory [6, 10]: 100
3 | CCOC(=O)c1nc(-c2ccc(Cl)cc2)nc(N)c1I [Compound 137] | 45 | 60 | 0 | 0 | 0 | 0 | 0 | 0 | 25 | 45 | 0 | 0 | 0 | 0 | 0 | 0 | 0 | 0 | 0 | 0 | Plant response rating, Morningglory [6, 7]: 5; Plant response rating, Morningglory [6, 8]: 30; Plant response rating, Morningglory [6, 9]: 0; Plant response rating, Morningglory [6, 10]: 0
4 | NC(=O)c1nc(-c2ccc(Br)cc2)nc(N)c1Br [Compound 130] | 0 | 30 | 0 | 0 | 0 | 0 | 0 | 0 | 0 | 15 | 0 | 0 | 0 | 0 | 0 | 0 | 0 | 0 | 0 | 0 | Plant response rating, Morningglory [6, 7]: 0; Plant response rating, Morningglory [6, 8]: 0; Plant response rating, Morningglory [6, 9]: 0; Plant response rating, Morningglory [6, 10]: 0
5 | CCOC(=O)COc1nc(-c2ccc(Cl)cc2)nc(N)c1Cl [Compound 114] | 0 | 5 | 0 | 0 | 0 | 0 | 0 | 0 | 45 | 55 | 0 | 0 | 0 | 0 | 0 | 0 | 0 | 0 | 0 | 0 | Plant response rating, Morningglory [6, 7]: 40; Plant response rating, Morningglory [6, 8]: 55; Plant response rating, Morningglory [6, 9]: 0; Plant response rating, Morningglory [6, 10]: 0
6 | COC(=O)c1nc(-c2cccc(C)c2)nc(N)c1Cl [Compound 97] | 60 | 70 | 45 | 50 | 0 | 0 | 5 | 5 | 10 | 30 | 25 | 70 | 30 | 10 | 0 | 0 | 0 | 0 | 15 | 25 | Plant response rating, Morningglory [6, 7]: 45; Plant response rating, Morningglory [6, 8]: 50; Plant response rating, Morningglory [6, 9]: 0; Plant response rating, Morningglory [6, 10]: 0
